The values that follow come from US20140005153A1, “Off-Note Masking” (GIVAUDAN S. A., priority 2011, published 2014).

Assay [1] is described as follows: blind bench-top tasting panel, OTC syrup. Type of assay: in vivo. The protocol:
The following compositions are made and tested blind. Using a blind bench-top tasting panel (consisting of 4 to 8 panelists), panelists were asked to record the sensory attribute differences between the control and example samples, specifically focusing on off-notes (reduction or differences). Over-the-Counter (OTC) Syrup (Kroger Daytime Cold/Flu Relief (Acetaminophen 325 mg per 15 mL; Dextromethorphan HBr 10 mg per 15 mL; Phenylephrine HCl 5 mg per 15 mL))

Assay [2] in a line: sweetness enhancement detection level. Conditions: in vivo. The source says:
(§1) There is also provided an orally-receivable or -ingestible composition comprising an off-note-masking proportion of 1-(2-hydroxyphenyl)-3-(pyridin-4-yl)propane-1-one or a salt thereof 1-(2-hydroxyphenyl)-3-(pyridin-4-yl)propane-1-one (hereinafter referred to as “Compound 1”) is disclosed in United States published application No. 2010/272656. In this publication, the compound is described as an effective sweetness enhancer. It is a surprising feature of this disclosure that the same compound can deliver an off-note- or off-taste-masking effect at a concentration far below the concentration at which it is perceived as sweet. The minimum level at which the sweetness enhancement effect of Compound 1 can be detected is 35 ppm, but the off-note- or off-taste-masking effect of the masker can be as low as 2.5 ppm. A practical maximum for off-note masking is 10 ppm.

A short description of assay [3]: off-note / off-taste masking, lowest effective level. The following applies: in vivo.
Text: as §1

Assay [4] in a line: blind bench-top tasting panel, cocoa. Type of assay: in vivo. The text has this: (§2) The following compositions are made and tested blind. Using a blind bench-top tasting panel (consisting of 4 to 8 panelists), panelists were asked to record the sensory attribute differences between the control and example samples, specifically focusing on off-notes (reduction or differences).
Cocoa (Dilute 10% in Water to Consume) (Kroger Cocoa Unsweetened)

A short description of assay [5]: blind bench-top tasting panel, soy yogurt. Type of assay: in vivo.
Text: as §2
Soy Yogurt (O'Soy Organic Soy Yogurt Strawberry Flavor—5 g Protein Per 4 oz Serving)

Assay [6] in a line: blind bench-top tasting panel, proteinaceous supplement. The assay is classed as in vivo.
Text: as §2
Proteinaceous Supplement (GNC Pro Performance 100% Whey Protein)

The nature of assay [7]: blind bench-top tasting panel, fortified mayonnaise. The assay is classed as in vivo. How it is done: as §2
Fortified Mayonnaise (Smart Balance Omega Plus Light Mayonnaise Dressing—Omega-3 (500 Mg Per 15 g Serving) and Plant Sterols (100 Mg Per 15 g Serving)

Setting [8] is: 0.002% by weight in cocoa (unsweetened).
[9] abbreviates: 0.0015% by weight in whey protein supplement.

For the compound `O=C(CCc1ccncc1)c1ccccc1O` [Compound 1, 1-(2-hydroxyphenyl)-3-(pyridin-4-yl)propane-1-one], the “panelist preference over the control” value in assay [1] (0.003% by weight in OTC syrup), in assay [4] (setting [8]), in assay [5] (0.002% by weight in soy yogurt), in assay [6] (0.003% by weight in whey protein supplement) and in assay [7] (0.00025% by weight in fortified mayonnaise) was “preferred” in each case. The “minimum level at which the sweetness enhancement effect can be detected” value in assay [2] came to 35 ppm. Besides, the “off-note- or off-taste-masking effect can be as low as” value in assay [3] was 2.5 ppm.

`CC1CCC(CCCC(=O)O)C1(C)C` (centres unmarked) [Compound 2, 4-[2,2,3-trimethyl-cyclopentyl]-butanoic acid]: the “panelist preference over the control” value in assay [1] (0.003% by weight in OTC syrup), in assay [4] (setting [8]), in assay [5] (0.002% by weight in soy yogurt), in assay [6] (setting [9]) and in assay [7] (0.0005% by weight in fortified mayonnaise) was “preferred” each time.

With `CCc1c(C)c2ccc(OC(C)C(=O)O)c(C)c2oc1=O` (centres unmarked) [Compound 3, 2-[(3-ethyl-4,8-dimethyl-2-oxo-2H-chromen-7-yl)oxy]propanoic acid], the “panelist preference over the control” value in assay [1] (0.002% by weight in OTC syrup), in assay [4] (0.001% by weight in cocoa (unsweetened)), in assay [5] (0.001% by weight in soy yogurt), in assay [6] (setting [9]) and in assay [7] (0.001% by weight in fortified mayonnaise) was “preferred” throughout.
